The results in this text go back to patent US20120301551A1, “COMPOUNDS AND COMPOSITIONS FOR TREATING NEURONAL DEATH OR NEUROLOGICAL DYSFUNCTION” (Neurotech Pharmaceuticals Co., Ltd., priority 2005, published 2012).

One data set relates to G93A mouse. Put plainly: oxidative toxicity in G93A mouse (nitrotyrosine immunostaining). It is filed as in vivo. The following applies: G93A mice at ages of 10 weeks. As to the method: Reactive oxygen species (ROS) produced in progress of ALS disease was evaluated in G93A mouse.
For data set [1], the system named is Tg2576 transgenic mice. Briefly: amyloid plaque burden in Tg2576 transgenic mice (Thioflavin-S). It is filed as in vivo, mouse. As to the method: […] 18˜20 um brain cryo-sections were stained with 1% Thioflavin-S for 5 minutes and observed under fluorescence microscope system. Amyloid plaque burden/brain was quantified with MetaVue Image software (mean±SEM, n=2).
[…] 18˜20 μm brain sections stained 1% Thioflavin-S for 5 min and observed under fluorescence microscope system.

In data set [2] the test system is APPswe/PS1deltaE9 double transgenic mice. Put plainly: open field activity in APPswe/PS1deltaE9 double transgenic mice. It is filed as in vivo, mouse. The following applies: 25 mg/kg/day chemical 01 or 62.5 mg/kg/day ibuprofen for 14.5 months (3~17.5 months). As to the method:
After administration of drug for 14.5 months, Open field activity test was performed to evaluate locomotor activity and exploratory behavior. 4×4 of scale marks were drawn in white acryl box having a size of 60 cm×60 cm×35 cm (width×length×height) to make sixteen squares. Four squares in the center became center zone and twelve squares around the center zone became peripary zone. Mice were laid into transparent acryl tube (diameter: about 3.5 inches) laid at the left corner of the acryl box for 30 seconds. After 30 seconds, acryl tube was removed to make mouse free. Experiment was once performed for each mouse for 5 minutes. The distance traveled in the open field was recorded (mean±SEM, n=3-5).
(§1) 17.5 month-old APPswe/PS1deltaE9 double transgenic mice were fed chow alone (saline only), or containing 25 mg/kg/day of chemical—01, for […] (3˜17.5 month).
Open field activity was used to evaluate locomotor activity and exploratory behavior. The distance traveled in the open field was recorded and performance was analyzed after the testing took place.

Data set [3] deals with reactive oxygen species (ROS) in cortical cell cultures. Briefly: ROS production in cortical cell cultures exposed to FeCl2 (DCF fluorescence). The data set is classed as cell-based. The following applies: 1 uM; 50 uM FeCl2. The protocol: It was evaluated whether chemical 01 suppresses reactive oxygen species (ROS) increased by FeCl2. Cortical cell cultures (DIV 11-14) were continuously exposed to 50 uM FeCl2 alone or with inclusion of 1 uM of chemical 01. Then, the fluorescent intensity of 6-carboxy-2′,7′-dichlorofluorescin diacetate (oxidation product of DCDHF-DA) was evaluated (mean±SEM, n=3).

For data set [4], the system named is Tg2576 transgenic mice. Briefly: Morris water maze in Tg2576 transgenic mice. To be noted: 25 mg/kg/day for 5 months (9~14 months). It is filed as in vivo, mouse. The protocol:
14 month-old Tg2576 transgenic mice were fed chow alone, or containing 25 mg/kg/day of chemical 01, for 5 months (9˜14 months). After administration of 5 months, the cognitive function was analyzed by Morris water maze test. Training was performed 4 times a day (4 trials/day) for 5 days. If mouse stay on the platform for over 10 seconds, it is thought to be a success. After 5 days of experiments, the latency to find the platform was recorded and analyzed for each mouse (mean±SEM, n=2).
14 month-old Tg2576 transgenic mice were fed chow alone (saline only), or containing 25 mg/kg/day of chemical—01, for 5 months (9˜14 month).
The cognitive function was analyzed by Morris water maze test. Mice ware trained to perform a hidden platform task in the Morris water maze. The latency to find the platform was recorded for each mouse.

The subject of data set [5] is APPswe/PS1deltaE9 double transgenic mice. Put plainly: brain Aβ40/Aβ42 levels in APPswe/PS1deltaE9 double transgenic mice (ELISA). The data set is classed as in vivo, mouse. As to the method: SDS-soluble/insoluble Aβ40 or Aβ42 levels were analyzed by colorimetric sandwich ELISA kit (BIOSOURCE, Camarillo, Calif.).
In general terms: ELISA stands for enzyme-linked immunosorbent assay.

A further data set has as its system IL-6. Put plainly: LPS-induced IL-6 production in BV2 cells. It is filed as cell-based. As to the method: Suppressing effects of chemical 01 in BV2 cell lines on production of IL-1β, IL-6 or TNF-α were evaluated. BV2 cells were exposed to 1 ug/ml LPS (inflammation-inducing material) with inclusion of chemical 01 at indicated doses. After 4 hours, supernatant were collected and concentrations of TNF-a were evaluated. In addition, BV2 cells were treated by the same method, and 24 hours later, supernatant were collected and concentrations of IL-1β and IL-6 were evaluated (mean±SEM, n=3). BV2 cells treated with LPS only were used as control.

The test system of data set [6] is APPswe/PS1deltaE9 double transgenic mice. Briefly: elevated plus maze in APPswe/PS1deltaE9 double transgenic mice. The data set is classed as in vivo, mouse. The following applies: 25 mg/kg/day for 14.5 months (3~17.5 months). The protocol: After administration of 14.5 months, Elevated plus maze test was performed to evaluate the behavior improvement like example 10-3-2 (mean±SEM, n=3-5).
as §1
The anxiety function was analyzed by elevated plus maze test. The time spent in the open arm was recorded in the elevated plus maze.

The nature of data set [7]: single-dose toxicity test. The following applies: mouse, in vivo; single dose. The protocol:
Single-dose toxicity test of compounds showing good results in the above three efficacy tests were evaluated.

Data set [8] is described as follows: DPPH free radical scavenging. The data set is classed as biochemical. The source says: Free radical scavenging activity of chemical 01 was directly evaluated with 1,1-diphenyl-2-picrylhydrazil (DPPH, a stable free radical).
For orientation: Loss of DPPH colour is used to gauge radical scavenging.

A further data set deals with Fas-FADD interaction. Put plainly: Fas-FADD interaction in serum-deprived neuron-rich cultures (immunoprecipitation, Western blot). The data set is classed as cell-based, mouse. The following applies: deprived of serum for 8 hr. As to the method:
(B) Neuron-rich cortical cell cultures (DIV 7) were deprived of serum, alone or with addition of 100 μM zVADfmk, 1 μM 2-hydroxy TTBA, or 5 mM Li^+. Neuronal death was analyzed 24 hr later by counting viable neurons excluding trypan (mean±SEM, n=4). *, Significant difference from the relevant control (serum deprivation alone), p<0.05 using ANOVA and Student-Neuman-Keuls test. (C) Western blot analysis of FADD antibody following immunoprecipitation with Fas antibody in the same samples above.
Additional experiments were performed to examine if targeting both neuronal cell necrosis and apoptosis would result in synergic neuroprotection in […] transgenic mice. […] Neuronal cell apoptosis was induced by serum deprivation in neuron-rich cortical cell cultures as reported, which was prevented by addition of 5 mM Li^+ as well as zVADfmk, a broad spectrum inhibitor of caspases (FIG. 5B). […] Additional experiments were performed to examine if Li^+ would prevent Fas signaling pathway. […] This implies that 2-Hydroxy-TTBA and Li^+ blocks oxidative neuronal cell necrosis and apoptosis, respectively.
In general terms: Immunoblotting shows a protein as a band on a membrane.

Molecules are shown by their SMILES.

The LD50 is the dose expected to kill half of the subjects tested. High values mean lower toxicity, low ones greater toxicity. As usually defined, the IC50 is the point on the concentration scale where inhibition reaches its midpoint. Turning to `O=C(O)c1cc(NCCc2ccc(C(F)(F)F)cc2)ccc1O` [chemical 01, 2-Hydroxy-5-[2-(4-trifluoromethyl-phenyl)-ethylamino]-benzoic acid], the “fluorescence intensity of nitrotyrosine (oxidative toxicity) in motor neurons” value in the data set with G93A mouse is given as “decreased”. For the same compound, the “amyloid plaque burden, in words” value in the data set with Tg2576 transgenic mice [1] (25 mg/kg/d for 8 months (9~17 month)) is “reduced significantly”. Also, the “reduction of amyloid plaque burden compared to control” value with Tg2576 transgenic mice [1] (25 mg/kg/day in chow for 8 months (9~17 months)) was 39.2%. Moreover, in the data set on Tg2576 transgenic mice [1] (100 mg/kg/day for 6 months (from 6 to 12 months)), the “reduction in plaque burden” value stood at 62%. The “open field activity (distance traveled)” value in [2] is listed as “reduced significantly”. For the same compound, the “production of ROS in cell increased by FeCl2” value in data set [3] is on record as “suppressed”. For the same compound, the “escape latency (latency to find the platform)” value with Tg2576 transgenic mice [4] is reported as “shorter”. In addition, in data set [5] (25 mg/kg/d chemical 01 or 62.5 mg/kg/day ibuprofen for 14.5 months), the “SDS-soluble/insoluble Aβ40 or Aβ42 levels, in words” value is given as “reduced”. Further, the “reduction in SDS-insoluble Aβ40 levels” value is listed as 27% in [5] (25 mg/kg/day for 4 months (from 8.5 to 12.5 month-old)) and 42% in data set [5] (25 mg/kg/day for 7 months (from 3.5 to 10.5 months)). Moreover, the “decrease of IL-6 released into media” value in the data set on IL-6 (100 uM, 1 ug/ml LPS, 24 hours) was about 70%. Moreover, the “IL-6 decrease, in words” value with IL-6 (1~100 uM) is listed as “dose-dependent manner”. Also, the “time spent in the open arm” value in data set [6] is reported as “decreased the time”; in data set [6] (listed as chemical—01), “spent less time”. Further, in data set [7], the LD50 is over 3000 mg/kg. This compound also gave an IC50 in data set [8] of 9.55 µM.
Regarding `O=C(O)c1cc(NCc2c(F)c(F)c(C(F)(F)F)c(F)c2F)ccc1O` [2-Hydroxy-TTBA, 2-hydroxy-5-(2,3,5,6-tetrafluoro-4-trifluoromethyl-benzylamino)-benzoic acid], the “Fas-FADD interaction, effect in words” value with Fas-FADD interaction is listed as “not”.
